Reference: patent US9000017B2, “Combinations of imazalil and silver compounds” (Janssen Pharmaceutica NV, priority 2006, dated 2015)
Read-outs that look alike come from different tables or passages of the source.

Experiments:
Test in all cases: Poison Plate Assay
Format in all cases: cell-based
[1] = tested on: Penicillium purpurogenum; conditions: Penicillium purpurogenum CBS 170.60, ppm total active ingredient, PDA, 22° C., two weeks
Procedure: (§1) [table] […] [table] MIC values (minimum inhibitory concentration in ppm total active ingredient) were noted and synergy was calculated using the Synergy Index method described by Kull et al. (Kull, […], and R. L. Mayer (1961) “Mixtures of quaternary ammonium compounds and long-chain fatty acids as antifungal agents” Applied Microbiology 9: 538-541; also see Zwart Voorspuij, A. J., and […] (1957) “Some aspects of the notions additivity, synergism and antagonism in the simultaneous activity of two antibacterial agents in vitro” Arch. intern. […] Steinberg, D. C. […] Petrocci, H. A. Green, and J. J. Merianos (1977) “Antimicrobial composition” U.S. Pat. […] MIC), • Qa is the concentration of compound A in ppm, in the mixture, which produced an end point (e.g. MIC), • QB is the concentration of compound B in ppm, acting alone, which produced an end point (e.g. MIC), • Qb is the concentration of compound B in ppm, in the mixture, which produced an end point (e.g. MIC). […] When the SI is equal to 1.0, additivity is indicated.

[2] = tested on: Pseudomonas aeruginosa; conditions: Pseudomonas aeruginosa NCIB 8295, ppm total active ingredient, Tryptose Agar, 27° C., one week
Procedure: as §1

[3] = tested on: Rhodoturula rubra; conditions: 336 h, Rhodoturula rubra B 52183, ppm total active ingredient, PDA, 22° C., two weeks, read-out: MIC-values in ppm (minimum inhibitory concentration)
Procedure: as §1

[4] = imazalil with silver perchlorate, label = % imazalil + % silver perchlorate

C=CCOC(Cn1ccnc1)c1ccc(Cl)cc1Cl (stereo not drawn) [imazalil]
MIC ([1]; CBS170, 336 h, imazalil with silver nitrate, label = % imazalil + % silver nitrate, read-out: MIC-values in ppm (minimum inhibitory concentration)): 158 µg/mL | MIC-values in ppm (minimum inhibitory concentration) [1, 4]: 158 ppm | MIC ([2]; NCIB8295, 168 h, imazalil with silver nitrate, label = % imazalil + % silver nitrate, read-out: MIC-values in ppm (minimum inhibitory concentration)): 667 µg/mL | MIC-values in ppm (minimum inhibitory concentration) [2, 4]: 667 ppm | MIC ([3]; imazalil with silver nitrate, label = % imazalil + % silver nitrate): 158 µg/mL | MIC [3, 4]: 119 µg/mL
